According to patent US20140087991A1, “PEPTIDE PRODRUGS” (The Johns Hopkins University, priority 2006, published 2014):
Ends that are not written are not given here. * marks the point of attachment. Mu = morpholinocarbonyl, O=C(N1CCOCC1)*

Tested on: human MDA-MB231 breast cancer xenografts
Assay: Antitumor effect in breast cancer xenografts
Format: in vivo, nude mice
Details: FIG. 6 legend, values not given

For “FAP activated prodrug: FAP selective peptide Mu-SGEAGPA (Mu = morpholinocarbonyl) coupled to 12 ADT (12-aminododecanoyl thapsigargin) (not fully specified (C-terminus); printed as Mu-SGEAGPA; also: coupled to 12ADT (12-aminododecanoyl thapsigargin))”, the antitumor effect was “antitumor effect”.
